From patent publication US10485846B2, “Collagenase-derived peptides promote tissue regeneration and wound healing” (Tufts University, priority 2014, dated 2019)

Legend:
[1] = test system: cranial cutaneous wounds; assay: Cranial cutaneous excisional wound healing in cyclophosphamide-treated mice (impaired healing model); type: in vivo, Balb/c mice; conditions: peptide in CMC applied daily days 1-5, day 6 post-injury; vs untreated control or collagenase (FIGS. 7-8)
Method: Balb/c mice were pre-treated with cyclophosphamide at 150 mg/kg 3 days prior to injury and with 100 mg/kg cyclophosphamide 1 day before injury. Cranial cutaneous wounds were created using 4 mm punch biopsy tool and immediately covered with adherent transparent dressing (TEGADERM™). The peptides were prepared fresh daily and injected under the dressing on days 1-5 post injury. On day 6 after wounding the animals were sacrificed according to Division of Laboratory Animal Medicine (DLAM) approved procedures. Wounds together with surrounding healthy tissues were excised, cut in half along the midline and either fixed in 4% phosphate buffered formaldehyde or frozen in OCT for further processing. […]
Wounds were created, treated as described in FIG. 6 and scored in a blind manner according to the grading described in Table 2. * indicates statistical significance of findings (p<0.05).
Wounds were created and treated as described in FIG. 1. Wound epithelialization was measured at day 6 post wounding. ** indicate statistical significance of findings (p<0.05). […]
Following cyclophosphamide treatment, animals were injured and then wounds treated/covered. Test entities were coded so that the nature of the experiment was blinded to the investigator; and, each specimen was evaluated and scored blindly according to the wound healing system shown in Table 2, prior to unmasking the experimental code. […]

[2] = test system: adult human keratinocytes; assay: Scratch wound closure / post-injury migration of keratinocyte monolayer; type: cell-based; conditions: 10 nM peptide, monitored 0, 1, 3 and 5 hours post-injury (FIG. 5)
Method: Adult human keratinocytes were plated into glass-bottom well plates at high density. Scratch wounds were made in the cell monolayer 24 h post-plating. The peptides dissolved in keratinocyte growth media (10 nM) were applied immediately after wounding. Wound closure was monitored at 0, 1, 3 and 5 hours post-injury. Dashed line outlines the wounds. Representative images of wounds treated with TSN2 and TSN6 are shown.
Human epidermis-derived keratinocytes were plated at a post-confluent density prior to mechanical injury in the presence or absence of bioactive wound healing peptides or control entities.

[3] = test system: human microvascular endothelial cells; assay: Human microvascular endothelial cell proliferation (coulter counter cell count); type: cell-based; conditions: for endothelial cell proliferation relative to control: 100 nM peptides every other day, counted day 5 post-plating (FIG. 2); for endothelial growth-promoting activity compared with fibroblast growth factor 2 (FGF2): FIG. 2
Method: Human microvascular endothelial cells were plated at low density in multi-well plates and treated with 100 nM peptides every other day. At day 5 post-plating the cells were counted using a coulter counter. Cell proliferation relative to control is shown. *statistical significance (p<0.05).
(§1) In our efforts aimed at characterizing the growth-promoting, migration-enhancing and angiogenesis-inducing activities embodied in SANTYL® collagenase Ointment and in an effort focused on contrasting the efficacy of collagenase vs. the newly-discovered SANTYL® collagenase API-derived bioactive wound healing peptide(s), we continue to perform a battery of pre-clinical tests and trials using the well-established models of injury and repair developed, here, at Tufts University School of Medicine and the Center for Innovations in Wound Healing Research. To these ends, we took advantage of the 2D and 3D injury/repair models developed to quantify cellular responses to injury. […] This is especially noteworthy since these peptides not only promote vascular endothelial growth but, adult human keratinocyte growth.

[4] = test system: adult human keratinocytes; assay: Adult human keratinocyte proliferation (coulter counter cell count); type: cell-based; conditions: FIG. 3B, PK vs. peptides
Method: Adult human keratinocytes were plated at low density in multi-well plates and treated with 10 nM peptides (FIG. 3A) or 1-100 nM peptides (FIG. 3B) every other day. At day 7 post-plating the cells were counted using a coulter counter. Cell proliferation relative to control (FIG. 3A) or absolute cell number grown (FIG. 3B) are shown. *statistical significance (p<0.05).
as §1

[5] = test system: human microvascular endothelial cells; assay: In vitro angiogenesis / tube formation on growth factor-reduced Matrigel; type: cell-based; conditions: 100 nM peptide in Matrigel and media (FIG. 4)
Method: ECM-derived peptides were dissolved in growth factor-reduced Matrigel at 100 nM, the matrix was allowed to polymerize, human microvascular endothelial cells were plated either in control low serum containing media or media containing 100 nM peptides. Representative images of cells treated with endothelial ECM-derived peptides are shown.
Function-specific domains present within TSN1/2 and the newly-engineered “combinatorial” peptides present within TSN 10 are able to promote in vitro angiogenesis. TSN peptides promote morphogenesis and angiogenic activation by stimulating migration, proliferation and tube formation; peptide-stimulated endothelial tubes are more numerous, of greater length, having more branch points then control treated endothelial cell cultures.

Row | Sequence | wound healing in vivo (wound score, Table 2 grading; wound closure) [1] | keratinocyte migration in response to scratch injury (wound closure) [2] | endothelial cell proliferation relative to control [3] | endothelial growth-promoting activity compared with fibroblast growth factor 2 (FGF2) [3] | keratinocyte growth-promoting activity compared with PK SANTYL collagenase API [4] | in vitro angiogenesis (tube formation) [5]
1 | HSPDIQLQKGLTFEPIQIK (listed as Homo sapiens) [TSN6, 19 aa peptide; origin Multimerin-1 Coiled coil domain] | markedly stimulated to heal wounds | marked migration-enhancing activity | – | – | – | –
2 | MENAELDVPIQSVFTR (listed as Homo sapiens) [TSN2, 16 aa peptide; origin Thrombospondin-1 N-terminal domain] | – | marked migration-enhancing activity | stimulate human dermally-derived microvascular endothelial cell growth in vitro | exceed the growth-promoting activity embodied in fibroblast growth factor 2 (FGF2) | completely accounting for the keratinocyte growth-promoting activity present within PK SANTYL collagenase API | angiogenesis-inducing activity
3 | NFQGVQNRFVFGTP (listed as Homo sapiens) [TSN1, 14 aa peptide; origin Thrombospondin-1 Laminin G-like domain] | – | – | stimulate human dermally-derived microvascular endothelial cell growth in vitro | exceed the growth-promoting activity embodied in fibroblast growth factor 2 (FGF2) | completely accounting for the keratinocyte growth-promoting activity present within PK SANTYL collagenase API | markedly promoted in vitro angiogenesis
4 | RPGPSPEGTGQSYNYR (listed as Homo sapiens) [TSN8, 16 aa peptide] | – | – | – | – | – | markedly promoted in vitro angiogenesis
5 | TGQSYNQYSQRPYLGVYVFK (listed as Homo sapiens) [TSN10, 20 aa combinatorial peptide; Combination of Thrombospondin and multimerin peptides] | – | – | – | – | completely accounting for the keratinocyte growth-promoting activity present within PK SANTYL collagenase API | markedly promoted in vitro angiogenesis
